Source: patent US20250032477A1, “COMPOUNDS, PHARMACEUTICAL COMPOSITIONS, AND METHODS FOR THE TREATMENT, PREVENTION, OR MANAGEMENT OF HYPERPROLIFERATIVE DISORDERS” (VINCERX PHARMA GMBH, priority 2021, published 2025)
Read-outs that look alike come from different tables or passages of the source.

Experiments:
[1] = test system: SUM149; assay: Cytotoxicity in vitro in the presence and absence of elastase (MTT); type: cell-based
Method in brief: (§1)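 Cells seeded 24 h beforehand, then treated in triplicate with compound (10^−5 to 10^−13 M) alone or with 10 nM elastase for 72 h at 37 °C. Proliferation measured by MTT (4 h reagent, overnight lysis, absorbance 570 nm), normalised to untreated cells.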

[2] = type: physicochemical
Excerpt: pH dependent ring-opening by hydrolysis of the lactone ring is an issue in the camptothecin class of agents. It is a pH dependent equilibrium between closed lactone form and ring-opened hydroxy acid form which is shifted to the closed ring at acidic pH and to the opened form under basic conditions. Only the lactone form is active. […] The closed and hydrolyzed open forms are differentiable by mass using the LC-MS methods described herein.
Method for acidic eluent: System MS: Waters TOF instrument; System UPLC: Waters Acquity I-CLASS; Column: Waters Acquity UPLC HSS T3 1.8 μm 50×1 mm; Eluent A: 1 L Water+0.100 ml 99% Formic acid (pH 3.4); Eluent B: 1 L Acetonitrile+0.100 ml 99% Formic acid; Gradient: 0.0 min 90% A→1.2 min 5% A→2.0 min 5% A Oven: 50° C.; Flow: 0.40 ml/min; UV-Detection: 210 nm.
Method for basic eluent: System MS: Thermo Scientific FT-MS; System UHPLC+: Thermo Scientific UltiMate 3000; Column: Waters, BEH c18 1.7μ, 2.1×50 mm, Eluent A: 1 L Water+1.0 mL (25% Ammonia) (pH of eluent A=10.2); Eluent B: 1 L Acetonitrile; Gradient: 0.0 min 5% B→2.5 min 95% B→3.5 min 95% B; Oven: 50° C.; Flow: 0.90 ml/min; UV-Detection: 210 nm/Optimum Integration Path 210-300 nm.

[3] = test system: NCI H292; assay: Cytotoxicity in vitro in the presence and absence of elastase (MTT); type: cell-based, human
Method in brief: as §1

[4] = test system: 786-O; assay: as above; type: cell-based, human
Method in brief: as §1

[5] = test system: HT29; assay: as above; type: cell-based, human
Method in brief: as §1

[6] = test system: NCI H292; assay: Cytotoxicity in vitro in the presence and absence of legumain; type: cell-based; conditions: Homo sapiens, NCI H292 cells
[7] = test system: HT29; assay: as above; type: cell-based; conditions: Homo sapiens, HT-29, HT29 cells
[8] = test system: SUM149; assay: as above; type: cell-based; conditions: SUM149 cells

Q: What does the source list for `CCCNC(=O)Nc1cccc(S(=O)(=O)Nc2cccc([C@@H](CC(=O)[O-])NC(=O)Nc3ccc(NC(=O)NCCOCCOCCOCCC(=O)N[C@@H](CC(=O)[O-])C(=O)N4CCC[C@H]4C(=O)N[C@H](C(=O)O[C@]4(CC)C(=O)OCc5c4cc4n(c5=O)Cc5c-4nc4cc(F)c(C)c6c4c5[C@@H](NC(C)=O)CC6)C(C)C)cc3)c2)c1.[Na+].[Na+]` [Compound 2, disodium (1S,9S)-1-acetamido-9-ethyl-5-fluoro-4-methyl-10,13-dioxo-2,3,9,10,13,15-hexahydro-1H,12H-benzo[de]pyrano[3′,4′:6,7]indolizino[1,2-b]quinolin-9-yl 1-[(2S)-2-(carboxylatomethyl)-17-{4-[({(1R)-2-carboxylato-1-[3-({3-[(propylcarbamoyl)amino]benzene-1-sulfonyl}amino)phenyl]ethyl}carbamoyl)amino]anilino}-4,17-dioxo-7,10,13-trioxa-3,16-diazaheptadecanan-1-oyl]-L-prolyl-L-valinate]?
A: IC50 ([1]; SUM149 cells, with 10 nM elastase, 72 h, MTT, read-out: SUM149 IC50 w elastase): 0.01 to 0.1 nM; IC50 ([1]; SUM149 cells, without elastase, 72 h, MTT, read-out: SUM149 IC50 w/o): 1.1 to 10 nM; Lactone ring form detected by LC-MS, acidic eluent ([2]; acidic eluent (pH 3.4), UV and mass detection): only the closed form (201); Lactone ring form detected by LC-MS, basic eluent ([2]; basic eluent (pH of eluent A=10.2), UV and mass detection): No open form (203) was detected; IC50 ([3]; NCI H292 cells, with 10 nM elastase, 72 h, MTT, read-out: NCI H292 IC 50 w elastase): 0.1 to 1 nM; IC50 ([3]; NCI H292 cells, without elastase, 72 h, MTT, read-out: NCI H292 IC 50 w/o): 1.1 to 10 nM; IC50 ([4]; 786-O cells, with 10 nM elastase, 72 h, MTT, read-out: 786-O IC50 w elastase): 0.01 to 0.1 nM; IC50 ([4]; 786-O cells, without elastase, 72 h, MTT, read-out: 786-O IC50 w/o): 10 to 100 nM; IC50 ([5]; HT29 cells, with 10 nM elastase, 72 h, MTT, read-out: HT29 IC50 w elastase): 0.1 to 1 nM; IC50 ([5]; HT29 cells, without elastase, 72 h, MTT, read-out: HT29 IC50 w/o): > 100 nM

Q: For `CC[C@@]1(O)C(=O)OCc2c1cc1n(c2=O)Cc2c-1nc1cc(F)c(C)c3c1c2[C@@H](NC(=O)[C@H](CC(N)=O)NC(=O)[C@H](C)N(C)C(=O)[C@H](C)NC(=O)Cc1ccncc1)CC3` [Compound 11, N-[(pyridin-4-yl)acetyl]-L-alanyl-N-methyl-L-alanyl-N^1-[(1S,9S)-9-ethyl-5-fluoro-9-hydroxy-4-methyl-10,13-dioxo-2,3,9,10,13,15-hexahydro-1H, 12H-benzo[de]pyrano [3′,4′:6,7]indolizino [1,2-b]quinolin-1-yl]-L-aspartamide], which IC50 ([6]; with legumain, read-out: NCI H292 IC50 w legumain) is on record?
A: The IC50 was 11 to 100 nM.

Q: What about the IC50 ([6]; without legumain, read-out: NCI H292 IC50 w/o) of the same compound?
A: The IC50 was 11 to 100 nM.

Q: And the IC50 ([7]; with legumain, read-out: HT29 IC50 w legumain)?
A: Its IC50 is > 100 nM.

Q: What about the IC50 ([7]; without legumain, read-out: HT29 IC50 w/o) of the same compound?
A: Its IC50 is > 100 nM.

Q: And the IC50 ([8]; with legumain, read-out: SUM149 IC50 w legumain)?
A: Its IC50 is 1.1 to 10 nM.

Q: And the IC50 ([8]; without legumain, read-out: SUM149 IC50 w/o)?
A: Its IC50 is 1.1 to 10 nM.

Q: Which IC50 ([1]; read-out: SUM149 IC50 w elastase) does the source give for `CCCNC(=O)Nc1cccc(S(=O)(=O)Nc2cccc([C@@H](CC(=O)O)NC(=O)Nc3ccc(NC(=O)NCCOCCOCCOCCC(=O)N[C@@H](CC(=O)O)C(=O)N4CCC[C@H]4C(=O)N[C@H](C(=O)O[C@]4(CC)C(=O)OCc5c4cc4n(c5=O)Cc5c-4nc4cc(F)c(C)c6c4c5[C@@H](N)CC6)C(C)C)cc3)c2)c1` [Compound 4, (1S,9S)-1-amino-9-ethyl-5-fluoro-4-methyl-10,13-dioxo-2,3,9,10,13,15-hexahydro-1H,12H-benzo[de]pyrano[3′,4′:6,7]indolizino[1,2-b]quinolin-9-yl N-(14-{4-[({(1R)-2-carboxy-1-[3-({3-[(propylcarbamoyl)amino]benzene-1-sulfonyl}amino)phenyl]ethyl}carbamoyl)amino]anilino}-14-oxo-4,7,10-trioxa-13-azatetradecanan-1-oyl)-L-alpha-aspartyl-L-prolyl-L-valinate] here?
A: Its IC50 is < 0.01 nM.

Q: And the IC50 ([1]; read-out: SUM149 IC50 w/o)?
A: Its IC50 is 1.1 to 10 nM.

Q: What about the “Lactone ring form detected by LC-MS, acidic eluent” value ([2]; pH 3.4) of the same compound?
A: The value was “only the closed form (301) was detected”.

Q: What about the IC50 ([3]; read-out: NCI H292 IC 50 w elastase) of the same compound?
A: The IC50 was 0.01 to 0.1 nM.

Q: And the IC50 ([3]; read-out: NCI H292 IC 50 w/o)?
A: Its IC50 is 1.1 to 10 nM.

Q: And the IC50 ([4]; read-out: 786-O IC50 w elastase)?
A: Its IC50 is 0.01 to 0.1 nM.

Q: And the IC50 ([4]; read-out: 786-O IC50 w/o)?
A: Its IC50 is 1.1 to 10 nM.

Q: What about the IC50 ([5]; read-out: HT29 IC50 w elastase) of the same compound?
A: Its IC50 is 0.01 to 0.1 nM.

Q: What about the IC50 ([5]; read-out: HT29 IC50 w/o) of the same compound?
A: Its IC50 is 10 to 100 nM.
